The text below walks through data of publication PMC6176987, “Correction of cognitive deficits in mouse models of Down syndrome by a pharmacological inhibitor of DYRK1A” (Disease Models & Mechanisms, 2018).

pIC50: −log10 of the molar value.

One data set has as its target CLK1 (Mus musculus, UniProt P22518). In words: Recombinant protein kinase assay, CLK1. In kind it is biochemical.
Data set [1] can be described thus: L41 levels in brain nuclear and cytoplasmic fractions. The note with it: mouse, in vivo. As for the experimental part: Thus, DYRK1A overexpression in the transgenic animals' brains appears to be limited to the cytoplasmic fraction, corresponding to the subcellular distribution of overexpressed DYRK1A (Fig. 7A,B). Accordingly, more L41 is detected in the cytoplasmic fraction from transgenic animals compared with their control littermates.
Nuclear, cytosolic and synaptosomal subcellular fractionation of brain tissue was performed with the Syn-PER™ and ProteoExtract® Tissue Dissociation Buffer Kit and Subcellular Proteome Extraction Kit following the instructions of the manufacturer. Fractions were analysed by SDS-PAGE and WB with specific antibodies.

Data set [2] has as its system Tg(Dyrk1a) mice brain phosphoproteins. As to the kind of experiment: Brain phosphoproteomic analysis, Tg(Dyrk1a) mice. It is filed as in vivo, mouse. The note with it: 20 mg/kg daily i.p. 19 days. From the text: All tissue samples were processed for phosphoproteomics analysis based on the enrichment and separation of proteotypic phosphopeptides with HILIC (see Materials and Methods). In Tg(Dyrk1a) and Ts65Dn mice, the hippocampus, cortex and cerebellum yielded 1384, 1523 and 2004 peptides, respectively, corresponding to 886, 948 and 1229 proteins (Table 1; Tables S1-S13).
Only biological processes common to the three brain regions and both models are presented (complete biological processes are listed in Tables S11-S13).
DYRK1A substrates and their respective phosphorylation sites were identified in the phosphoproteome based on the DYRK1A phosphorylation consensus sequence R-P-x(1,3)-S/T-P ([Himpel et al., 2000]). […] Biological process enrichments of each cluster were assessed by using ToppCluster web server application. […]
Protein Identification and Quantification. […]
Precursor Mass Tolerance 10 ppm, Fragment Mass Tolerance 20 mmu, Dynamic Modifications were Oxidation of M (+15.995 Da), Deamidation of N, Q (+0.984 Da), Phosphorylation of S (+79.966 Da) and Static Modifications were iTRAQ8plex at any N-Terminus, K, Y (+304.205 Da) and Methylthio at C (+45.988 Da). […] The Reporter Ion Quantifier node included a custom iTRAQ 8plex (Thermo Scientific Instruments) Quantification Method, integration window tolerance of 10 ppm with Most Confident Centroid. […]

The next data set concerns DYRK1A. In words: Brain DYRK1A protein expression by western blotting after treatment. It is filed as in vivo, mouse. The note with it: 19 days daily i.p., transgenic and wt brains. As to the method:
Brains were obtained from mice and snap-frozen until further use. Then tissues were weighed, homogenized and sonicated in 1 ml lysis buffer (60 mM β-glycerophosphate, 15 mM p-nitrophenylphosphate, 25 mM Mops pH 7.2, 15 mM EGTA, 15 mM MgCl2, 2 mM dithiothreitol, 1 mM sodium orthovanadate, 1 mM sodium fluoride, 1 mM phenylphosphate disodium and protease inhibitor cocktail) per g of material. Homogenates were centrifuged for 15 min at 17,000 g and 4°C. The supernatant was recovered and assayed for protein content (Bio-Rad, France). The proteins were separated by 10% NuPAGE pre-cast Bis-Tris polyacrylamide mini gel electrophoresis (Invitrogen, France) with MOPS-SDS running buffer. Proteins were transferred to 0.45-µm nitrocellulose filters (Schleicher and Schuell, Germany). They were blocked with 5% low-fat milk in Tris-buffered […]/Tween 20, and incubated overnight at 4°C with antibodies. Anti-DYRK1A (H00001859-M01; 1:1000) and anti-GSK-3α/β (KAM-ST002E; 1:1000) were obtained from Interchim (France) and Stressgen (France), respectively. Appropriate secondary antibodies conjugated to horseradish peroxidase (Bio-Rad) were added to visualize the proteins using the enhanced chemiluminescence reaction (ECL, Amersham, France).

Sequence of CLK1 (P22518 whole entry): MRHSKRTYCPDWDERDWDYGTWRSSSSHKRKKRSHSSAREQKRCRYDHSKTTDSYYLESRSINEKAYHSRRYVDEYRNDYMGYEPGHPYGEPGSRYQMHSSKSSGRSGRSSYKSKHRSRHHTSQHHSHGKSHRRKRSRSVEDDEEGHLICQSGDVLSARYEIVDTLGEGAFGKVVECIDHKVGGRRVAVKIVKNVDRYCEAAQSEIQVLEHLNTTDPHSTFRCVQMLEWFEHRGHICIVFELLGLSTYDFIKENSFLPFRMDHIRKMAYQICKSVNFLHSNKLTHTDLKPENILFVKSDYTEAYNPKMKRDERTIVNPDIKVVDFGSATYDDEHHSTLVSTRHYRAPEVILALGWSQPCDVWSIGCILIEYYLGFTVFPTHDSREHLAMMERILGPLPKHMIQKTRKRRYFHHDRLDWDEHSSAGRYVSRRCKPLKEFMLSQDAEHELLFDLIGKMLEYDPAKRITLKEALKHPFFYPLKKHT

In the case of `O=C1NC(Nc2ccccc2)=N/C1=C\c1ccc2c(c1)OCO2` [L41], on CLK1, the pIC50 is 7.64. In data set [1], the “L41 level in brain cytoplasmic fraction, Tg(Dyrk1a) vs wt” value is given as “significantly increased” and the “L41 levels in brain nuclear fractions, Tg(Dyrk1a) vs wt” value was “identical L41 levels”. Besides, the “SYN1 Ser551 phosphorylation following treatment” value in data set [2] is “dephosphorylated”. The “Effect on expression of DYRK1A and GSK-3α/β protein” value in the data set with DYRK1A is “no effect”.
